In patent publication US5202315A, “Cephalosporin compounds” (Lucky, Ltd., priority 1989, dated 1993):
In brackets after ≈: the same amount, converted by molar mass.

How the values were obtained:
Format in all cases: cell-based
Pseudomonas aeruginosa = test: Antibacterial activity against clinically isolated strains, MIC; settings: 54 clinical isolates, broth microdilution test; for MIC90: read-out: MIC 90%
[1] = test system: Staphylococcus aureus methicillin resistant; test: as above; settings: methicillin resistant, 7 clinical isolates, broth microdilution test; for MIC90: read-out: MIC 90%
[2] = test system: Staphylococcus aureus methicillin susceptible; test: as above; settings: methicillin susceptible, 42 clinical isolates, broth microdilution test; for MIC90: read-out: MIC 90%
Escherichia coli = test: as above; settings: 38 clinical isolates, broth microdilution test
[3] = test system: Bacillus megaterium ATCC 9885; test: Antibacterial activity, MIC; settings: Priestia megaterium, ATCC9885; ATCC 9885; agar two-fold dilution, 37° C., 20 hours; read-out: MIC
How it was run: (§1)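 Plates of Mueller-Hinton agar containing two-fold serial dilutions of compound were inoculated with 2 μl of test strain suspension (10^7 CFU per ml) and incubated for 20 hours at 37 °C.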

[4] = test system: Proteus mirabilis ATCC 25933; test: Antibacterial activity, MIC; settings: ATCC25933, ATCC 25933, agar two-fold dilution, 37° C., 20 hours, read-out: MIC
How it was run: as §1

[5] = test system: Staphylococcus aureus ATCC 6538p; test: Antibacterial activity, MIC; settings: ATCC6538P, ATCC 6538p, agar two-fold dilution, 37° C., 20 hours, read-out: MIC
How it was run: as §1

[6] = test system: Bacillus cereus ATCC 11778; test: Antibacterial activity, MIC; settings: ATCC11778, ATCC 11778, agar two-fold dilution, 37° C., 20 hours, read-out: MIC
How it was run: as §1

[7] = test system: Escherichia coli ATCC 10536; test: Antibacterial activity, MIC; settings: ATCC10536, agar two-fold dilution, 37° C., 20 hours
How it was run: as §1

[8] = test system: Acinetobacter calcoaceticus ATCC 15473; test: Antibacterial activity, MIC; settings: ATCC15473, ATCC 15473, agar two-fold dilution, 37° C., 20 hours, read-out: MIC
How it was run: as §1

[9] = test system: Shigella flexneri ATCC 11836; test: Antibacterial activity, MIC; settings: ATCC11836, agar two-fold dilution, 37° C., 20 hours
How it was run: as §1

[10] = test system: Pseudomonas aeruginosa ATCC 27853; test: Antibacterial activity, MIC; settings: ATCC27853, ATCC 27853, agar two-fold dilution, 37° C., 20 hours, read-out: MIC
How it was run: as §1

[11] = test system: Providencia rettgeri ATCC 9250; test: Antibacterial activity, MIC; settings: ATCC9250, agar two-fold dilution, 37° C., 20 hours
How it was run: as §1

[12] = test system: Morganella morganii ATCC 8076h; test: Antibacterial activity, MIC; settings: ATCC8076H, agar two-fold dilution, 37° C., 20 hours
How it was run: as §1

[13] = test system: Streptococcus faecalis ATCC 29212; test: Antibacterial activity, MIC; settings: Enterococcus faecalis, ATCC29212; ATCC 29212; agar two-fold dilution, 37° C., 20 hours; read-out: MIC
How it was run: as §1

[14] = test system: Shigella sonnei ATCC 11060; test: Antibacterial activity, MIC; settings: ATCC11060, ATCC 11060, agar two-fold dilution, 37° C., 20 hours, read-out: MIC
How it was run: as §1

[15] = test system: Pseudomonas aeruginosa ATCC 25619; test: Antibacterial activity, MIC; settings: ATCC25619, ATCC 25619, agar two-fold dilution, 37° C., 20 hours, read-out: MIC
How it was run: as §1

[16] = test system: Serratia marcescens ATCC 27117; test: Antibacterial activity, MIC; settings: ATCC27117, ATCC 27117, agar two-fold dilution, 37° C., 20 hours, read-out: MIC
How it was run: as §1

[17] = test system: Enterobacter cloacae ATCC 27508; test: Antibacterial activity, MIC; settings: ATCC27508, ATCC 27508, agar two-fold dilution, 37° C., 20 hours, read-out: MIC
How it was run: as §1

[18] = test system: Klebsiella pneumoniae ATCC 10031; test: Antibacterial activity, MIC; settings: ATCC10031, ATCC 10031, agar two-fold dilution, 37° C., 20 hours, read-out: MIC
How it was run: as §1

[19] = test system: Proteus vulgaris ATCC 6059; test: Antibacterial activity, MIC; settings: ATCC6059, ATCC 6059, agar two-fold dilution, 37° C., 20 hours, read-out: MIC
How it was run: as §1

[20] = test system: Enterobacter aerogenes ATCC 29751; test: Antibacterial activity, MIC; settings: Klebsiella aerogenes, ATCC29751; ATCC 29751; agar two-fold dilution, 37° C., 20 hours; read-out: MIC
How it was run: as §1

[21] = test system: Salmonella typhimurium ATCC 14028; test: Antibacterial activity, MIC; settings: Salmonella enterica; ATCC 14028; agar two-fold dilution, 37° C., 20 hours; read-out: MIC
How it was run: as §1

[22] = test system: Citrobacter freundii ATCC 8090; test: Antibacterial activity, MIC; settings: ATCC8090, ATCC 8090, agar two-fold dilution, 37° C., 20 hours, read-out: MIC
How it was run: as §1

[23] = test system: Staphylococcus aureus ATCC 10537; test: Antibacterial activity, MIC; settings: ATCC10537, ATCC 10537, agar two-fold dilution, 37° C., 20 hours, read-out: MIC
How it was run: as §1

[24] = test system: Pseudomonas aeruginosa ATCC 10145; test: Antibacterial activity, MIC; settings: ATCC10145, ATCC 10145, agar two-fold dilution, 37° C., 20 hours, read-out: MIC
How it was run: as §1

[25] = test system: Micrococcus luteus ATCC 9341; test: Antibacterial activity, MIC; settings: ATCC9341, ATCC 9341, agar two-fold dilution, 37° C., 20 hours, read-out: MIC
How it was run: as §1

[26] = test system: Escherichia coli ATCC 25922; test: Antibacterial activity, MIC; settings: ATCC25922, agar two-fold dilution, 37° C., 20 hours
How it was run: as §1

[27] = test system: Staphylococcus epidermidis ATCC 12228; test: Antibacterial activity, MIC; settings: ATCC12228, ATCC 12228, agar two-fold dilution, 37° C., 20 hours, read-out: MIC
How it was run: as §1

Klebsiella pneumoniae = test: Antibacterial activity against clinically isolated strains, MIC; settings: 10 clinical isolates, broth microdilution test; for MIC90: read-out: MIC 90%

Row | Structure (SMILES) | MIC50 (Pseudomonas aeruginosa) | MIC90 (Pseudomonas aeruginosa) | MIC50 [1] | MIC90 [1] | MIC50 [2] | MIC90 [2] | MIC50 (Escherichia coli) | MIC90 (Escherichia coli) | MIC [3] | MIC [4] | MIC [5] | MIC [6] | MIC [7] | MIC [8] | MIC [9] | MIC [10] | MIC [11] | MIC [12] | MIC [13] | MIC [14] | further results
1 | CCO/N=C(\C(=O)NC1C(=O)N2C(C(=O)[O-])=C(CSc3nc(N)cc(N)[n+]3N)CSC12)c1nsc(N)n1 (centres unmarked) [Compound I-17] | 4 µg/mL (≈ 7.05 µM) | 8 µg/mL (≈ 14.1 µM) | 16 µg/mL (≈ 28.2 µM) | 64 µg/mL (≈ 113 µM) | 0.5 µg/mL (≈ 0.881 µM) | 1 µg/mL (≈ 1.76 µM) | 0.13 µg/mL (≈ 0.229 µM) | 0.25 µg/mL (≈ 0.44 µM) | 0.13 µg/mL (≈ 0.229 µM) | 0.5 µg/mL (≈ 0.881 µM) | 0.5 µg/mL (≈ 0.881 µM) | 8 µg/mL (≈ 14.1 µM) | 0.13 µg/mL (≈ 0.229 µM) | 2 µg/mL (≈ 3.52 µM) | 0.031 µg/mL (≈ 0.0546 µM) | 2 µg/mL (≈ 3.52 µM) | ≤ 0.008 µg/mL | 0.016 µg/mL (≈ 0.0282 µM) | 32 µg/mL (≈ 56.4 µM) | 0.13 µg/mL (≈ 0.229 µM) | MIC [15]: 0.5 µg/mL (≈ 0.881 µM); MIC [16]: 0.25 µg/mL (≈ 0.44 µM); MIC [17]: 0.016 µg/mL (≈ 0.0282 µM); MIC [18]: 0.016 µg/mL (≈ 0.0282 µM); MIC [19]: 0.5 µg/mL (≈ 0.881 µM); MIC [20]: 0.25 µg/mL (≈ 0.44 µM); MIC [21]: 0.5 µg/mL (≈ 0.881 µM); MIC [22]: 0.063 µg/mL (≈ 0.111 µM); MIC [23]: 0.5 µg/mL (≈ 0.881 µM); MIC [24]: 4 µg/mL (≈ 7.05 µM); MIC [25]: 0.016 µg/mL (≈ 0.0282 µM); MIC [26]: 0.13 µg/mL (≈ 0.229 µM); MIC [27]: 0.25 µg/mL (≈ 0.44 µM); MIC50 (Klebsiella pneumoniae): 0.25 µg/mL (≈ 0.44 µM); MIC90 (Klebsiella pneumoniae): 0.25 µg/mL (≈ 0.44 µM)
2 | C#CCO/N=C(\C(=O)NC1C(=O)N2C(C(=O)[O-])=C(CSc3nc(N)cc(N)[n+]3N)CSC12)c1csc(N)n1 (centres unmarked) [Compound I-18] | 4 µg/mL (≈ 6.94 µM) | 8 µg/mL (≈ 13.9 µM) | 128 µg/mL (≈ 222 µM) | > 128 µg/mL | 0.25 µg/mL (≈ 0.434 µM) | 0.25 µg/mL (≈ 0.434 µM) | 0.13 µg/mL (≈ 0.225 µM) | 0.25 µg/mL (≈ 0.434 µM) | 0.063 µg/mL (≈ 0.109 µM) | 0.13 µg/mL (≈ 0.225 µM) | 0.25 µg/mL (≈ 0.434 µM) | 8 µg/mL (≈ 13.9 µM) | 0.13 µg/mL (≈ 0.225 µM) | 2 µg/mL (≈ 3.47 µM) | 0.016 µg/mL (≈ 0.0277 µM) | 2 µg/mL (≈ 3.47 µM) | ≤ 0.008 µg/mL | ≤ 0.008 µg/mL | 32 µg/mL (≈ 55.5 µM) | 0.13 µg/mL (≈ 0.225 µM) | MIC [15]: 0.5 µg/mL (≈ 0.867 µM); MIC [16]: 0.13 µg/mL (≈ 0.225 µM); MIC [17]: ≤ 0.008 µg/mL; MIC [18]: ≤ 0.008 µg/mL; MIC [19]: 0.13 µg/mL (≈ 0.225 µM); MIC [20]: 0.25 µg/mL (≈ 0.434 µM); MIC [21]: 0.25 µg/mL (≈ 0.434 µM); MIC [22]: 0.063 µg/mL (≈ 0.109 µM); MIC [23]: 0.25 µg/mL (≈ 0.434 µM); MIC [24]: 4 µg/mL (≈ 6.94 µM); MIC [25]: 0.013 µg/mL (≈ 0.0225 µM); MIC [26]: 0.063 µg/mL (≈ 0.109 µM); MIC [27]: 0.063 µg/mL (≈ 0.109 µM); MIC (Klebsiella pneumoniae): 0.13 µg/mL (≈ 0.225 µM); MIC50 (Klebsiella pneumoniae): 0.13 µg/mL (≈ 0.225 µM); MIC90 (Klebsiella pneumoniae): 0.13 µg/mL (≈ 0.225 µM)
